Experimental data published in PubChem BioAssay AID330 (DTP/NCI, 2004).
Values joined by “and” are separate entries in the source; they are usually repeats but may differ in a detail not shown here. Equal entries are not always repeated. Toxic doses and inconclusive results are not listed. Peptide text beside a SMILES is read from it. * marks the point of attachment. Cbz = O=C(OCc1ccccc1)*

System: P388 leukemia ip, CD2F1 mice, survival T/C
Test: NCI In Vivo Anticancer Drug Screen. Data for tumor model P388 Leukemia (intraperitoneal) in CD2F1 (CDF1) mice
Conditions: endpoint: median survival time, higher = longer survival
How it was run: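 Mice carrying the transplanted tumor received test compound or vehicle. Survival was recorded in each group, and the value is the treated-group measurement divided by that of the vehicle-treated control group.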

[1] = dose: 50.0 mg/kg/injection, schedule: Q01DX009 (ip), vehicle: saline
[2] = dose: 100.0 mg/kg/injection, schedule: Q01DX009 (ip), vehicle: saline
[3] = dose: 200.0 mg/kg/injection, schedule: Q01DX009 (ip), vehicle: saline
[4] = dose: 50.0 mg/kg/injection, schedule: Q01DX005 (ip), vehicle: saline with Tween-80
[5] = dose: 100.0 mg/kg/injection, schedule: Q01DX005 (ip), vehicle: saline with Tween-80
[6] = dose: 200.0 mg/kg/injection, schedule: Q01DX005 (ip), vehicle: saline with Tween-80

SMILES: O=c1[nH]c(=O)n(C2OC(CO)C(O)C2O)cc1F (configuration not stated)
- T/C (dose: 0.62 mg/kg/injection, schedule: Q01DX009 (ip), vehicle: saline): 179 % of control
- T/C (dose: 0.79 mg/kg/injection, schedule: Q01DX009 (ip), vehicle: saline): 157 % of control
- T/C (dose: 1.0 mg/kg/injection, schedule: Q01DX005 (ip), vehicle: saline): 158 % of control
- T/C (dose: 1.57 mg/kg/injection, schedule: Q01DX009 (ip), vehicle: saline): 169 % of control
- T/C (dose: 2.0 mg/kg/injection, schedule: Q01DX005 (ip), vehicle: saline): 172 % of control
- T/C (dose: 2.5 mg/kg/injection, schedule: Q01DX009 (ip), vehicle: saline): 176 % of control and 205 % of control
- T/C (dose: 3.89 mg/kg/injection, schedule: Q04DX003 (ip), vehicle: saline): 157 % of control
- T/C (dose: 4.0 mg/kg/injection, schedule: Q01DX005 (ip), vehicle: saline): 185 % of control
- T/C (dose: 5.0 mg/kg/injection, schedule: Q01DX009 (ip), vehicle: saline): 189 % of control
- T/C (dose: 6.48 mg/kg/injection, schedule: Q04DX002 (ip), vehicle: saline): 150 % of control
- T/C (dose: 6.48 mg/kg/injection, schedule: Q04DX003 (ip), vehicle: saline): 159 % of control
- T/C (dose: 10.8 mg/kg/injection, schedule: Q04DX002 (ip), vehicle: saline): 160 % of control
- T/C (dose: 10.8 mg/kg/injection, schedule: Q04DX003 (ip), vehicle: saline): 175 % of control
- T/C (dose: 18.0 mg/kg/injection, schedule: Q04DX003 (ip), vehicle: saline): 186 % of control

SMILES: CCn1c(=O)c2c(NC)snc2n(CC)c1=O
- T/C [1]: 97 % of control
- T/C [2]: 95 % of control
- T/C [3]: 98 % of control

SMILES: CC[N+]1(CC)CCCCC1
- T/C (dose: 3.12 mg/kg/injection, schedule: Q01DX009 (ip), vehicle: saline): 109 % of control
- T/C (dose: 6.25 mg/kg/injection, schedule: Q01DX009 (ip), vehicle: saline): 109 % of control
- T/C (dose: 12.5 mg/kg/injection, schedule: Q01DX009 (ip), vehicle: saline): 105 % of control

SMILES: C=C[CH2][Sn]([CH3])([CH3])[CH2]C=C
- T/C (dose: 50.0 mg/kg/injection, schedule: Q01DX005 (ip), vehicle: saline): 96 % of control
- T/C (dose: 100.0 mg/kg/injection, schedule: Q01DX005 (ip), vehicle: saline): 107 % of control

SMILES: CCOC(C)c1nc2c([nH]1)c(=O)n(C)c(=O)n2C (configuration not stated)
- T/C (dose: 60.0 mg/kg/injection, schedule: Q01DX005 (ip), vehicle: saline): 99 % of control
- T/C (dose: 120.0 mg/kg/injection, schedule: Q01DX005 (ip), vehicle: saline): 101 % of control
- T/C (dose: 240.0 mg/kg/injection, schedule: Q01DX005 (ip), vehicle: saline): 95 % of control

SMILES: Cc1ccc(S(=O)(=O)N(CCCc2c(-c3ccccc3)nc(N)[nH]c2=O)c2ccccc2)cc1
- T/C (dose: 3.75 mg/kg/injection, schedule: Q01DX005 (ip), vehicle: saline with Tween-80): 102 % of control
- T/C (dose: 7.5 mg/kg/injection, schedule: Q01DX005 (ip), vehicle: saline with Tween-80): 94 % of control
- T/C (dose: 15.0 mg/kg/injection, schedule: Q01DX005 (ip), vehicle: saline with Tween-80): 107 % of control and 87 % of control
- T/C (dose: 60.0 mg/kg/injection, schedule: Q01DX005 (ip), vehicle: saline with Tween-80): 98 % of control and 90 % of control

SMILES: CCOc1ccc(N2C(N)=NC(N)=NC2(C)C)cc1
- T/C (dose: 12.5 mg/kg/injection, schedule: Q01DX005 (ip), vehicle: saline with Tween-80): 99 % of control
- T/C (dose: 25.0 mg/kg/injection, schedule: Q01DX005 (ip), vehicle: saline with Tween-80): 101 % of control
- T/C [4]: 101 % of control and 108 % of control

SMILES: OCC1CSC(=S)N1Cc1ccccc1 (configuration not stated)
- T/C (dose: 60.0 mg/kg/injection, schedule: Q01DX005 (ip), vehicle: Klucel (hydroxypropylcellulose) (HPC)): 97 % of control
- T/C (dose: 120.0 mg/kg/injection, schedule: Q01DX005 (ip), vehicle: Klucel (hydroxypropylcellulose) (HPC)): 100 % of control
- T/C (dose: 240.0 mg/kg/injection, schedule: Q01DX005 (ip), vehicle: Klucel (hydroxypropylcellulose) (HPC)): 107 % of control

SMILES: CCOCC(=O)O
- T/C [1]: 95 % of control
- T/C [2]: 92 % of control
- T/C [3]: 91 % of control

SMILES: CC(NC(=O)C(Cc1ccc(O)cc1)NC(=O)C(C)NC(=O)OCc1ccccc1)C(=O)O (stereo not drawn) (Cbz-Ala-Tyr-Ala-OH; configuration not given here)
- T/C [4]: 100 % of control
- T/C [5]: 104 % of control
- T/C [6]: 99 % of control

SMILES: COc1ccc2c(=O)c(-c3ccc(OC)c(OC)c3OC)coc2c1
- T/C (dose: 100.0 mg/kg/injection, schedule: Q04DX003 (ip), vehicle: Klucel (hydroxypropylcellulose) (HPC)): 99 % of control
- T/C (dose: 200.0 mg/kg/injection, schedule: Q04DX003 (ip), vehicle: Klucel (hydroxypropylcellulose) (HPC)): 100 % of control
- T/C (dose: 400.0 mg/kg/injection, schedule: Q04DX003 (ip), vehicle: Klucel (hydroxypropylcellulose) (HPC)): 99 % of control

SMILES: O=C1CN(c2ccc(Cl)cc2)C(=O)CN1/N=C/c1ccco1
- T/C [4]: 103 % of control
- T/C [5]: 107 % of control
- T/C [6]: 100 % of control
